From patent publication US6855695B2, “Water-soluble SHPs as novel alkylating agents” (Vion Pharmaceuticals, Inc., priority 2003, dated 2005)
Values after ≈ are worked out from the molar mass of the structure shown.

Tests used:
[1] = Stability in 100% human plasma; format: in vitro ADME; details: both sexes, 37° C.
Procedure: (§1) The stability of compounds 19, 20a and VNP40101M was evaluated in 100% human plasma (pooled mixed gender, BioChemed) at a final concentration of 50 μg/mL. Each drug (19 or 20a) was incubated in human plasma at 37° C. for a maximum of two hours. Aliquots of the incubation mixture were taken at various time points and extracted with acetonitrile. The extract was separated by centrifugation and analyzed directly by HPLC. In a similar manner, VNP40101M was incubated in human plasma at 37° C. for a maximum of one hour. At various time points, aliquots of the incubation mixture were removed and extracted with 0.5% H3PO4 in acetonitrile. The extract was separated by centrifugation and analyzed directly by HPLC. For comparison, the stability of each drug incubated in 50 mM Tris buffered saline (pH 7.6) instead of 100% human plasma was also determined.

[2] = Pharmacokinetic study in rats, single iv bolus, HPLC-UV; format: in vivo, female Sprague-Dawley rats; details: iv bolus 50 mg/kg
Procedure: Preliminary investigations of the pharmacokinetic profiles of prodrugs 19 and 20a were conducted in female Sprague-Dawley rats (10 weeks old, 250 g, Charles River). Each prodrug was administered as a single bolus intravenous (iv) injection via the jugular vein at a dose of 50 mg per kg (mpk) of body weight. Blood samples were collected on the day of dosing at the following time points: pre-dose and approximately 2, 10, 30 min, 1, 2, and 24 hr, after dosing. At each time point, approximately 0.2 mL of blood was collected in a tube containing an anticoagulant (heparin), which was immediately acidified by adding 0.005 mL of a 2.0 M citric acid solution. Then, the tube was inverted 4 to 6 times and immediately placed on ice. The blood samples were centrifuged within 30 min after blood collection at 3,000 rpm for 10-20 min at 2-8° C., and the plasma fraction was transferred to a labeled Nunc cryovial. The plasma samples were immediately frozen on dry ice and stored at −20° C. until HPLC-UV analysis. Animals were euthanized with CO2 inhalation after experiments.
Bioanalytical methods were developed to quantify these prodrugs in rat plasma using HPLC-UV at either 220 nm or 230 nm. Each plasma sample (0.1 mL) was extracted with 0.2 mL of acetonitrile. The extract was separated by centrifugation and analyzed directly by HPLC-UV. HPLC calibration standards were prepared in control rat plasma and processed as above.
Comparison to VNP101M (10 mpk of radioactive VNP101M was used in previous experiments) is difficult because of the difference in doses used in two the studies.

alkaline phosphatase = test: In vitro enzymatic bioconversion by alkaline phosphatase; format: in vitro ADME; details: bovine, alkaline phosphatase from bovine intestinal mucosa; approx. 0.055 unit/mL AP in 50 mM Tris buffered saline pH 7.6, 37° C., drug approx. 50 μg/mL
Procedure: Each drug, at a final concentration of approximately 50 μg/mL, was incubated at 37° C. in 50 mM Tris buffered saline (pH 7.6) containing approximately 0.055 unit/mL of the phosphatase enzyme.
(§2) A control sample of each drug at a final concentration of 50 μg/mL in 50 mM Tris buffered saline (pH 7.6) without AP was also incubated at 37° C. Aliquots of each solution were taken periodically; disappearance of the tested drug was determined by HPLC.

[3] = Water-solubility at room temperature; format: physicochemical; details: thermodynamic from solid; for solubility: determined visually by incremental addition, not at equilibrium
Procedure: The solubility of the newly synthesized SHPs (19, 20a, 21, and 22a) is much higher than that of VNP40101 M, as shown in Table 1.
For the free phosphoric acid 19 and 20a, an excess amount of the drug was placed in a glass vial containing 2.0 mL of water. The vials were shaken in a Glas Col rotary apparatus at room temperature for 24 hours. The suspension containing undissolved drug was centrifuged; the supernatant was carefully separated and analyzed by HPLC for drug concentration. […] Aqueous solutions of 19 and 20a were colorless. Similarly, the solubility of the sodium salts 21 and 22a was determined visually by adding incremental quantities of the drug to 2.0 mL of water in a glass vial. The vials were shaken at room temperature in a Glas Col rotary apparatus until the drug dissolved entirely. Additional fixed quantities of drug were added and the vials shaken until complete dissolution. This process was continued until no more drug dissolved. Compounds 21 and 22a are highly water-soluble. Because of limited drug supplies determination of the solubilities at equilibrium could not be obtained. Solubilities of >0.98 and >1.35 g/mL for 21 and 22a, respectively, were determined.

[4] = Aqueous stability in potassium phosphate buffers (50 mM), pH 3, 5, 7 and 9, HPLC; format: physicochemical; details: potassium phosphate buffer 50 mM
Procedure: The stabilities of PAP-101M (19), OAP-101M (20a), and VNP40101M were investigated in potassium phosphate buffers (50 mM) at pH 3, 5, 7 and 9 and at room temperature (22-25° C.). One sample was prepared at each pH for each drug; the initial drug concentration in each sample was 50 μg/mL. Each sample was analyzed by HPLC repetitively, at various time points, to determine the
concentration of the respective drug. The first-order kinetic half-lives of each drug were calculated.

B16-F10 murine melanoma = test: In vivo anti-tumor activity, B16-F10 murine melanoma implanted subcutaneously in C57BL/6 mice; details: for Tumor growth inhibition on Day 24: ip weekly for four weeks from Day 2, 80 mg/kg VNP40101M, equal molar doses of prodrugs
Procedure: (§3) The anti-tumor effects of VNP40101 M and prodrugs, including PAP-101M (19), OAP-101M (20a), PAP-Na-101M (21), and OAP-Na-101M (22a), were evaluated in both the B16-F10 murine melanoma and HTB177 human lung carcinoma models. B16-F10 melanoma cells were implanted subcutaneously (5×10^5 cells) into C57BL/6 mice, which were randomized into groups of ten immediately after tumor cell implantation (Day 0). On Day 2, mice were injected intraperitoneally with either a bolus injection of 0.1 mL PBS or drug. The treatment was carried out weekly for four consecutive weeks. Tumor measurement in three dimensions was determined once a week with the formula L×H×W/2, where L, H, and W represent length, height, and width, respectively. […] On Day 24, tumor growth was inhibited by 81% in mice treated with 80 mg/kg of VNP40101M, and by 75 to 91% in mice treated with equal molar doses of the prodrugs. […] The toxicity of these drugs in mice was mild as determined by body weight loss and animal appearance, as illustrated in FIG. 13.

[5] = test system: HTB177 human lung carcinoma; test: In vivo anti-tumor activity, HTB177 human lung carcinoma in nu/nu CD-1 mice
Procedure: as §3

[6] = Stability in 50 mM Tris buffered saline pH 7.6 (control without AP or plasma); format: physicochemical; details: 50 mM Tris buffered saline pH 7.6, 37° C.
Procedure: as §2, §1

[7] = test system: leukemia cells implanted intracranially; details: Finch et al. 2001; cited from earlier work
[8] = room temperature, Krishna et al. 2001; cited from earlier work
[9] = pH 9, room temperature (22-25° C.), read-out: Half-life, pH 9 (converted)
[10] = female, Sprague-Dawley, rat, plasma

Row | Structure (SMILES) | half-life at 50 μg/mL [1] | half-life at 50 μg/mL (alkaline phosphatase) | solubility at 24 h [3] | half-life at 50 μg/mL [4, 9] | Tumor growth inhibition on Day 24 (B16-F10 murine melanoma) | Anti-tumor effect in HTB177 human lung carcinoma (FIGS. 14 and 15) [5] | solubility [3] | other results
1 | CN(Cc1ccc(OP(=O)(O)O)cc1)C(=O)N(N(CCCl)S(C)(=O)=O)S(C)(=O)=O [PAP-101M (19), Phosphoric acid mono-{4-{N-[1,2-bis(methylsulfonyl)-2-(2-chloroethyl)-hydrazinylcarbonyl]-N-methylaminomethyl}-phenyl} ester] | 34.3 min | 21.1 min | 293 mg/mL (≈ 593 mM) |  |  |  |  | Pharmacokinetic determination in rat plasma (in words) [2]: fast conversion or clearance
2 | CN(Cc1ccccc1OP(=O)(O)O)C(=O)N(N(CCCl)S(C)(=O)=O)S(C)(=O)=O [OAP-101M (20a), Phosphoric acid mono-{2-{N-[1,2-bis(methylsulfonyl)-2-(2-chloroethyl)-hydrazinylcarbonyl]-N-methylaminomethyl}-phenyl} ester] | 53.3 min | 29 min | 46 mg/mL (≈ 93.1 mM) | 171 days | 91% | holdout promise |  | Survival of tumor-bearing mice (FIG. 12) (B16-F10 murine melanoma; B16-F10 tumor-bearing mice, versus other drugs): survived longer; half-life ([2]; female, Sprague-Dawley, rat, plasma, iv, 50 mg/kg): ~14 min; AUC [2, 10]: 21900 ng·h/mL; Cmax [2, 10]: 239 µg/mL; clearance [2, 10]: 37.8 mL/min/kg; Vd ([2]; female, Sprague-Dawley, rat, plasma, read-out: Vss): 0.146 L/kg
3 | CN(Cc1ccc(OP(=O)([O-])[O-])cc1)C(=O)N(N(CCCl)S(C)(=O)=O)S(C)(=O)=O.[Na+].[Na+] [PAP-Na-101M (21), Phosphoric acid 4-{N-[1,2-bis(methylsulfonyl)-2-(2-chloroethyl)-hydrazinylcarbonyl]-N-methylaminomethyl}-phenyl ester disodium salt] |  |  | > 980 mg/mL |  |  |  | > 980 mg/mL | 
4 | CN(Cc1ccccc1OP(=O)([O-])[O-])C(=O)N(N(CCCl)S(C)(=O)=O)S(C)(=O)=O.[Na+].[Na+] [OAP-Na-101M (22a), Phosphoric acid 2-{N-[1,2-bis(methylsulfonyl)-2-(2-chloroethyl)-hydrazinylcarbonyl]-N-methylaminomethyl}-phenyl ester disodium salt] |  |  | > 1350 mg/mL |  | 89.5% | holdout promise | > 1350 mg/mL | 
5 | CNC(=O)N(N(CCCl)S(C)(=O)=O)S(C)(=O)=O [VNP40101M, 1,2-Bis(methylsulfonyl)-1-(2-chloroethyl)-2-(methylaminocarbonyl) hydrazine] | 14.5 min |  |  | 0.00479 days | 81% |  |  | half-life at 50 μg/mL ([4]; pH 5, room temperature (22-25° C.), read-out: Half-life, pH 5 (converted)): 118 days; half-life at 50 μg/mL ([4]; pH 7, room temperature (22-25° C.), read-out: Half-life, pH 7 (converted)): 0.508 days; half-life at 50 μg/mL [6]: 20.5 min; Log cell kill [7]: > 6.54 log cell kill; Water-solubility [8]: 0.66 mg/mL
